Laboratory results taken from PMC5218480 (PLoS ONE, 2017).

Tested on: MV-4-11 cells
Assay: Gene expression microarray analysis (Affymetrix PrimeView) and GSEA
Format: cell-based, human
Design: RFU PODN (11730768_x_at) / Fold change /veh PODN (11730768_x_at) / RFU LINC00158 (11744669_a_at) / Fold change /veh LINC00158 (11744669_a_at) / RFU DUSP10 (11751237_a_at) / Fold change /veh DUSP10 (11751237_a_at) / RFU ID3 (11757404_x_at) / Fold change /veh ID3 (11757404_x_at) / RFU PLEKHG5 (11737974_s_at) / Fold change /veh PLEKHG5 (11737974_s_at) / RFU LRRC4B (11730491_at) / Fold change /veh LRRC4B (11730491_at) / RFU GIMAP4 (11747438_a_at) / Fold change /veh GIMAP4 (11747438_a_at) / RFU KRT8 (11758183_x_at) / Fold change /veh KRT8 (11758183_x_at) / RFU CNN1 (11734310_a_at) / Fold change /veh CNN1 (11734310_a_at) / RFU VPS37D (11726825_at) / Fold change /veh VPS37D (11726825_at) / RFU C10orf10 (11716522_x_at) / Fold change /veh C10orf10 (11716522_x_at) / RFU KIR2DL2 /// KIR2DL4 /// KIR2DL5A /// KIR2DL5B /// KIR2DS1 /// KIR2DS2 /// KIR2DS3 /// KIR2DS4 /// KIR3DL3 /// KIR3DL3 /// KIR3DS1 (11738374_at) / Fold change /veh KIR2DL2 /// KIR2DL4 /// KIR2DL5A /// KIR2DL5B /// KIR2DS1 /// KIR2DS2 /// KIR2DS3 /// KIR2DS4 /// KIR3DL3 /// KIR3DL3 /// KIR3DS1 (11738374_at) / RFU C1QL1 (11718748_at) / Fold change /veh C1QL1 (11718748_at) / RFU TMPRSS4 (11747572_a_at) / Fold change /veh TMPRSS4 (11747572_a_at) / RFU HAMP (11756126_x_at) / Fold change /veh HAMP (11756126_x_at) / RFU RNFT2 (11725882_a_at) / Fold change /veh RNFT2 (11725882_a_at) / RFU NR4A2 (11747474_a_at) / Fold change /veh NR4A2 (11747474_a_at) / RFU ABCC12 (11746883_a_at) / Fold change /veh ABCC12 (11746883_a_at) / RFU TMEM136 (11760407_x_at) / Fold change /veh TMEM136 (11760407_x_at) / RFU CLDN22 /// WWC2 (11732394_at) / Fold change /veh CLDN22 /// WWC2 (11732394_at) / RFU HLA-DPB1 (11760878_x_at) / Fold change /veh HLA-DPB1 (11760878_x_at) / RFU SPINT1 (11716480_a_at) / Fold change /veh SPINT1 (11716480_a_at) / RFU GAP43 (11754022_s_at) / Fold change /veh GAP43 (11754022_s_at) / RFU A4GNT (11735810_at) / Fold change /veh A4GNT (11735810_at) / RFU PRB3 (11715151_x_at) / Fold change /veh PRB3 (11715151_x_at) / RFU TUBB4B (11761932_at) / Fold change /veh TUBB4B (11761932_at) / RFU CAPN14 (11732068_a_at) / Fold change /veh CAPN14 (11732068_a_at) / RFU TMCC2 (11721928_a_at) / Fold change /veh TMCC2 (11721928_a_at) / RFU IRGQ (11745062_a_at) / Fold change /veh IRGQ (11745062_a_at) / RFU FAM174B (11720279_a_at) / Fold change /veh FAM174B (11720279_a_at) / RFU TMPRSS4 (11748680_a_at) / Fold change /veh TMPRSS4 (11748680_a_at) / RFU FAM212B (11763350_a_at) / Fold change /veh FAM212B (11763350_a_at) / RFU PLEKHG5 (11743358_a_at) / Fold change /veh PLEKHG5 (11743358_a_at) / RFU ZSCAN30 (11745921_a_at) / Fold change /veh ZSCAN30 (11745921_a_at) / RFU CMKLR1 (11741424_a_at) / Fold change /veh CMKLR1 (11741424_a_at) / RFU LOC101060620 /// MAPK8IP1 (11723275_at) / Fold change /veh LOC101060620 /// MAPK8IP1 (11723275_at) / RFU SPTSSB (11747773_x_at) / Fold change /veh SPTSSB (11747773_x_at) / RFU PRSS12 (11739890_at) / Fold change /veh PRSS12 (11739890_at) / RFU BIN1 (11741810_x_at) / Fold change /veh BIN1 (11741810_x_at) / RFU WNT11 (11732464_a_at) / Fold change /veh WNT11 (11732464_a_at) / RFU C10orf10 (11716521_a_at) / Fold change /veh C10orf10 (11716521_a_at) / RFU C5orf56 (11738089_at) / Fold change /veh C5orf56 (11738089_at) / RFU CYB561 (11721691_x_at) / Fold change /veh CYB561 (11721691_x_at) / RFU ANKRD19P (11752326_a_at) / Fold change /veh ANKRD19P (11752326_a_at) / RFU OR2T12 /// OR2T33 /// OR2T8 (11738714_s_at) / Fold change /veh OR2T12 /// OR2T33 /// OR2T8 (11738714_s_at) / RFU VCAN (11748164_a_at) / Fold change /veh VCAN (11748164_a_at) / RFU JSRP1 (11732532_at) / Fold change /veh JSRP1 (11732532_at) / RFU KRTAP10-11 (11738290_x_at) / Fold change /veh KRTAP10-11 (11738290_x_at) / RFU MYO3A (11730013_a_at) / Fold change /veh MYO3A (11730013_a_at) / RFU EBF3 (11725865_a_at) / Fold change /veh EBF3 (11725865_a_at) / RFU CAMK2N1 (11719241_x_at) / Fold change /veh CAMK2N1 (11719241_x_at) / RFU C5orf56 (11738088_a_at) / Fold change /veh C5orf56 (11738088_a_at) / RFU OLFML3 (11715873_a_at) / Fold change /veh OLFML3 (11715873_a_at) / RFU LOC100653217 /// NTM (11731650_a_at) / Fold change /veh LOC100653217 /// NTM (11731650_a_at) / RFU MAPK11 (11762145_a_at) / Fold change /veh MAPK11 (11762145_a_at) / RFU FIZ1 (11724087_x_at) / Fold change /veh FIZ1 (11724087_x_at) / RFU OASL (11726364_x_at) / Fold change /veh OASL (11726364_x_at) / RFU SOX15 (11748057_x_at) / Fold change /veh SOX15 (11748057_x_at) / RFU CD79A (11719716_a_at) / Fold change /veh CD79A (11719716_a_at) / RFU HIST1H1D (11736915_at) / Fold change /veh HIST1H1D (11736915_at) / RFU CASKIN2 (11723855_a_at) / Fold change /veh CASKIN2 (11723855_a_at) / RFU LOC730098 (11760151_x_at) / Fold change /veh LOC730098 (11760151_x_at) / RFU OR4N2 (11742367_at) / Fold change /veh OR4N2 (11742367_at) / RFU PRRT2 (11749266_a_at) / Fold change /veh PRRT2 (11749266_a_at) / RFU SNX32 (11753110_a_at) / Fold change /veh SNX32 (11753110_a_at) / RFU CDHR5 (11726645_a_at) / Fold change /veh CDHR5 (11726645_a_at) / RFU RCAN1 (11760418_a_at) / Fold change /veh RCAN1 (11760418_a_at) / RFU FAM167A (11723789_a_at) / Fold change /veh FAM167A (11723789_a_at) / RFU FAM26E (11764081_at) / Fold change /veh FAM26E (11764081_at) / RFU ISYNA1 (11749810_s_at) / Fold change /veh ISYNA1 (11749810_s_at) / RFU ACY1 (11761880_at) / Fold change /veh ACY1 (11761880_at) / RFU 11764098_at / Fold change /veh 11764098_at / RFU SAMD14 (11745864_x_at) / Fold change /veh SAMD14 (11745864_x_at) / RFU NPB (11741838_a_at) / Fold change /veh NPB (11741838_a_at) / RFU TMPRSS6 (11731388_a_at) / Fold change /veh TMPRSS6 (11731388_a_at) / RFU KRTAP10-2 (11738614_at) / Fold change /veh KRTAP10-2 (11738614_at) / RFU ARHGAP8 /// PRR5-ARHGAP8 (11727945_x_at) / Fold change /veh ARHGAP8 /// PRR5-ARHGAP8 (11727945_x_at) / RFU KRTAP5-7 /// NADSYN1 (11734609_at) / Fold change /veh KRTAP5-7 /// NADSYN1 (11734609_at) / RFU RASL12 (11751679_a_at) / Fold change /veh RASL12 (11751679_a_at) / RFU CDKN2B (11736163_a_at) / Fold change /veh CDKN2B (11736163_a_at) / RFU PRF1 (11729649_at) / Fold change /veh PRF1 (11729649_at) / RFU, ZNF638 /// ZNF638-IT1 / Fold change vs veh, ZNF638 /// ZNF638-IT1 / RFU, PANK3 / Fold change vs veh, PANK3 / RFU, SH3YL1 / Fold change vs veh, SH3YL1 / RFU, ZEB2 / Fold change vs veh, ZEB2 / RFU, NRIP1 / Fold change vs veh, NRIP1 / RFU, PTTG1IP / Fold change vs veh, PTTG1IP / RFU, CAPN2 / Fold change vs veh, CAPN2 / RFU, MED14 / Fold change vs veh, MED14 / RFU, SNORA58 / Fold change vs veh, SNORA58 / RFU, C1orf63 / Fold change vs veh, C1orf63 / RFU, LRRFIP1 / Fold change vs veh, LRRFIP1 / RFU, NDUFAF7 / Fold change vs veh, NDUFAF7 / RFU, SLC12A2 / Fold change vs veh, SLC12A2 / RFU, IBTK / Fold change vs veh, IBTK / RFU, ESF1 / Fold change vs veh, ESF1 / Fold change vs veh, TMEM50B / RFU, TAOK1 / Fold change vs veh, TAOK1 / RFU, ACBD3 / Fold change vs veh, ACBD3 / RFU, TMA16 / Fold change vs veh, TMA16 / RFU, RWDD3 / Fold change vs veh, RWDD3 / RFU, BCAT1 / Fold change vs veh, BCAT1 / RFU, EDEM3 / Fold change vs veh, EDEM3 / RFU, TMEM33 / Fold change vs veh, TMEM33 / RFU, WDR75 / Fold change vs veh, WDR75 / RFU, AHCTF1 / Fold change vs veh, AHCTF1 / RFU, TFRC / Fold change vs veh, TFRC / RFU, ZDHHC17 / Fold change vs veh, ZDHHC17 / RFU, NOM1 / Fold change vs veh, NOM1 / RFU, ARL8B / Fold change vs veh, ARL8B / RFU, ZBTB11 / Fold change vs veh, ZBTB11 / RFU, TAMM41 / Fold change vs veh, TAMM41 / RFU, KIAA1704 /// LOC100996395 / Fold change vs veh, KIAA1704 /// LOC100996395 / RFU, ING1 / Fold change vs veh, ING1 / RFU, TRMT61B / Fold change vs veh, TRMT61B / RFU, FUBP3 / Fold change vs veh, FUBP3 / RFU, TP53 / Fold change vs veh, TP53 / RFU, TNKS2 / Fold change vs veh, TNKS2 / RFU, ZFP14 / Fold change vs veh, ZFP14 / RFU, ACTR2 / Fold change vs veh, ACTR2 / RFU, PPP3R1 / Fold change vs veh, PPP3R1 / RFU, PIK3R1 / Fold change vs veh, PIK3R1 / RFU, HNRNPA1 / Fold change vs veh, HNRNPA1 / RFU, RNF170 / Fold change vs veh, RNF170 / RFU, ZNF28 / Fold change vs veh, ZNF28 / RFU, RNGTT / Fold change vs veh, RNGTT / RFU, OGT / Fold change vs veh, OGT / RFU, BRD1 / Fold change vs veh, BRD1 / RFU, MARS / Fold change vs veh, MARS / RFU, ZNF655 / Fold change vs veh, ZNF655 / RFU, FAHD1 / Fold change vs veh, FAHD1 / RFU, BDP1 / Fold change vs veh, BDP1 / RFU, LRRCC1 / Fold change vs veh, LRRCC1 / RFU, ARID1A / Fold change vs veh, ARID1A / RFU, ZNF146 / Fold change vs veh, ZNF146 / RFU, ZNF330 / Fold change vs veh, ZNF330 / RFU, GPN3 / Fold change vs veh, GPN3 / RFU, C9orf123 / Fold change vs veh, C9orf123 / RFU, N4BP2L2 / Fold change vs veh, N4BP2L2 / RFU, ARFIP1 / Fold change vs veh, ARFIP1 / RFU, FAM179B / Fold change vs veh, FAM179B / RFU, BCL10 / Fold change vs veh, BCL10 / RFU, UHRF1BP1L / Fold change vs veh, UHRF1BP1L / RFU, BET1 / Fold change vs veh, BET1 / RFU, CNOT2 / Fold change vs veh, CNOT2 / RFU, ZNF268 / Fold change vs veh, ZNF268 / Fold change vs veh, ZNF507 / RFU, DGCR2 / Fold change vs veh, DGCR2 / RFU, WDSUB1 / Fold change vs veh, WDSUB1 / Fold change vs veh, HSP90B1 /// MIR3652 / RFU, ADSS / Fold change vs veh, ADSS / RFU, GK / Fold change vs veh, GK / RFU, ZNF148 / Fold change vs veh, ZNF148 / RFU, TAF9 / Fold change vs veh, TAF9 / RFU, SLC1A5 / Fold change vs veh, SLC1A5 / RFU, SLMO2 / Fold change vs veh, SLMO2 / RFU, ABCC4 / Fold change vs veh, ABCC4 / RFU, LOC101060439 /// RAP1B / Fold change vs veh, LOC101060439 /// RAP1B / RFU, RFX7 / Fold change vs veh, RFX7 / RFU, GTPBP10 / Fold change vs veh, GTPBP10 / RFU, CNEP1R1 / Fold change vs veh, CNEP1R1 / RFU, BIVM-ERCC5 /// ERCC5 / Fold change vs veh, BIVM-ERCC5 /// ERCC5 / RFU, ILF3 / Fold change vs veh, ILF3 / RFU 11762660_at / Fold change /veh 11762660_at / RFU VCAN (11757783_s_at) / Fold change /veh VCAN (11757783_s_at) / RFU DDX43 (11728927_at) / Fold change /veh DDX43 (11728927_at) / RFU KRT8 (11758188_x_at) / Fold change /veh KRT8 (11758188_x_at) / RFU NKD1 (11759106_at) / Fold change /veh NKD1 (11759106_at) / RFU SRD5A1 (11742802_a_at) / Fold change /veh SRD5A1 (11742802_a_at) / RFU TPSAB1 /// TPSB2 (11721975_s_at) / Fold change /veh TPSAB1 /// TPSB2 (11721975_s_at) / RFU GSTM3 (11746129_a_at) / Fold change /veh GSTM3 (11746129_a_at) / RFU IL23R (11737362_x_at) / Fold change /veh IL23R (11737362_x_at) / RFU TMEM51 (11727254_a_at) / Fold change /veh TMEM51 (11727254_a_at) / RFU PIWIL2 (11732686_x_at) / Fold change /veh PIWIL2 (11732686_x_at) / RFU ORM1 (11744905_x_at) / Fold change /veh ORM1 (11744905_x_at) / RFU CCDC152 (11743942_at) / Fold change /veh CCDC152 (11743942_at) / RFU ECM1 (11717891_a_at) / Fold change /veh ECM1 (11717891_a_at) / RFU IL23R (11748794_a_at) / Fold change /veh IL23R (11748794_a_at) / RFU TNFAIP8L3 (11732012_x_at) / Fold change /veh TNFAIP8L3 (11732012_x_at) / RFU MBOAT4 (11741988_at) / Fold change /veh MBOAT4 (11741988_at) / RFU 11764193_at / Fold change /veh 11764193_at / RFU TMEM53 (11763286_at) / Fold change /veh TMEM53 (11763286_at) / RFU MAGEB2 (11727129_at) / Fold change /veh MAGEB2 (11727129_at) / RFU TMEM200A (11744735_a_at) / Fold change /veh TMEM200A (11744735_a_at) / RFU CCDC152 (11751479_a_at) / Fold change /veh CCDC152 (11751479_a_at) / RFU FAM211A (11726209_a_at) / Fold change /veh FAM211A (11726209_a_at) / RFU RGS16 (11746705_a_at) / Fold change /veh RGS16 (11746705_a_at) / RFU VCAN (11755009_s_at) / Fold change /veh VCAN (11755009_s_at) / RFU RHOB (11743442_s_at) / Fold change /veh RHOB (11743442_s_at) / RFU RGS16 (11720943_a_at) / Fold change /veh RGS16 (11720943_a_at) / RFU RGS16 (11720944_at) / Fold change /veh RGS16 (11720944_at) / RFU, VPS4B / Fold change vs veh, VPS4B / RFU, CREB1 / Fold change vs veh, CREB1 / RFU, DNAJC13 / Fold change vs veh, DNAJC13 / RFU, GNAQ / Fold change vs veh, GNAQ / RFU, CDK5R1 / Fold change vs veh, CDK5R1 / RFU, ZRANB3 / Fold change vs veh, ZRANB3 / RFU, CUL4A / Fold change vs veh, CUL4A / RFU, CCNY / Fold change vs veh, CCNY / RFU, UFL1 / Fold change vs veh, UFL1 / RFU, COG3 / Fold change vs veh, COG3 / RFU, DIAPH2 / Fold change vs veh, DIAPH2 / RFU, SKA2 / Fold change vs veh, SKA2 / RFU, AFF3 / Fold change vs veh, AFF3 / RFU, LMF1 / Fold change vs veh, LMF1 / RFU, IPO11 / Fold change vs veh, IPO11 / RFU, DFFB / Fold change vs veh, DFFB / RFU, FOXP1 / Fold change vs veh, FOXP1 / RFU, CARD8 / Fold change vs veh, CARD8 / RFU, STRN3 / Fold change vs veh, STRN3 / RFU, ADK / Fold change vs veh, ADK / RFU, RASSF2 / Fold change vs veh, RASSF2 / RFU, WIPF1 / Fold change vs veh, WIPF1 / RFU, LARP1B / Fold change vs veh, LARP1B / RFU, RASA1 / Fold change vs veh, RASA1 / RFU, RB1 / Fold change vs veh, RB1 / RFU, PPFIA1 / Fold change vs veh, PPFIA1 / RFU, MAT2A / Fold change vs veh, MAT2A / RFU, CCT5 / Fold change vs veh, CCT5 / RFU, WDR92 / Fold change vs veh, WDR92 / RFU, CUX1 / Fold change vs veh, CUX1 / RFU, TTC7A / Fold change vs veh, TTC7A / RFU, TMEM135 / Fold change vs veh, TMEM135 / RFU, DEPTOR / Fold change vs veh, DEPTOR / RFU, CPM / Fold change vs veh, CPM / RFU, DNAJB6 / Fold change vs veh, DNAJB6 / RFU, CACNA2D3 / Fold change vs veh, CACNA2D3 / RFU, DTX4 / Fold change vs veh, DTX4 / RFU, TFCP2 / Fold change vs veh, TFCP2 / RFU, GMCL1 /// GMCL1P1 / Fold change vs veh, GMCL1 /// GMCL1P1 / RFU, AEBP2 / Fold change vs veh, AEBP2 / RFU, SNHG1 /// SNORD22 /// SNORD25 /// SNORD26 /// SNORD27 /// SNORD28 /// SNORD29 /// SNORD31 / Fold change vs veh, SNHG1 /// SNORD22 /// SNORD25 /// SNORD26 /// SNORD27 /// SNORD28 /// SNORD29 /// SNORD31 / Fold change (Aza/veh), C12orf56 (ProbeSet 11735607_a_at) / Fold change (ACY-1035/veh), C12orf56 (ProbeSet 11735607_a_at) / Fold change (Aza/veh), FGFR1OP (ProbeSet 11751329_s_at) / Fold change (ACY-1035/veh), FGFR1OP (ProbeSet 11751329_s_at) / Fold change (Aza/veh), VPS36 (ProbeSet 11739960_a_at) / Fold change (ACY-1035/veh), VPS36 (ProbeSet 11739960_a_at) / RFU SYPL1 (11715823_x_at) / Fold change /veh SYPL1 (11715823_x_at) / RFU IGFBP7 (11715501_s_at) / Fold change /veh IGFBP7 (11715501_s_at) / RFU REEP3 (11722064_at) / Fold change /veh REEP3 (11722064_at) / RFU IGLL1 (11728026_x_at) / Fold change /veh IGLL1 (11728026_x_at): dose or concentration left out as unconfirmed
Conditions: MV-4-11 cells, 48 hours

Nc1ccc(-c2cccs2)cc1NC(=O)c1ccc2c(c1)cc(C1CC1)n2CCN1CCOCC1 [ACY-1035]
Fold change /veh RASL12 (11751679_a_at): 1.18
